# pKi: −log10 of the molar value. Activity calls are given as the source filed them. The calls are words filed in the database; no cut-off is given here.
# Tests used:
# [1] = tested on: HEK-293T; assay: Selectivity ratio of Ki for human CB1 receptor expressed in HEK293T cell membranes to human CB2 receptor expressed in HEK293T cell membranes; assay type: cell-based
# [2] = tested on: Mus musculus; assay: Toxicity in CD1 mouse assessed as time immobility on the ring for 5 mins at 30 mg/kg, po measured after 90 mins post dose by ring catalepsy test; assay type: organism-based; parameters: dose 30 mg/kg, route oral; conditions: in vivo
# [3] = biological target: Cannabinoid receptor 2 (Homo sapiens, UniProt P34972); assay: Displacement of [3H]-CP-55940 from human CB2 receptor expressed in HEK293T cell membranes by scintillation counting; parameters: species or system HEK-293T
# Sequence of Cannabinoid receptor 2 (P34972 whole entry): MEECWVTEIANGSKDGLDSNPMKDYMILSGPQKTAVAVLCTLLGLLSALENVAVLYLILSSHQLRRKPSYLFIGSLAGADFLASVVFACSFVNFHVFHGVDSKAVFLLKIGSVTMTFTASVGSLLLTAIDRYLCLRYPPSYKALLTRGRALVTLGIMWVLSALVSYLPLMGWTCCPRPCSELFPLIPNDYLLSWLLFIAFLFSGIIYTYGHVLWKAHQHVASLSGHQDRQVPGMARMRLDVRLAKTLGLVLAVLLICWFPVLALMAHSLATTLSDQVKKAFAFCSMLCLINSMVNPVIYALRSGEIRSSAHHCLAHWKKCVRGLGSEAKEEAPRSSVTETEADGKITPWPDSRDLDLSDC
# [4] = tested on: HL-60; assay: Antiinflammatory activity in human HL60 cells assessed as stimulation of PGJ synthesis after 2 hrs by ELISA in presence of CB2 antagonist SR144528; assay type: functional, cell-based
# [5] = biological target: Cannabinoid receptor 1 (Homo sapiens, UniProt P21554); assay: biochemical; assay type: cell-based, HEK-293T
# Sequence of Cannabinoid receptor 1 (P21554 whole entry): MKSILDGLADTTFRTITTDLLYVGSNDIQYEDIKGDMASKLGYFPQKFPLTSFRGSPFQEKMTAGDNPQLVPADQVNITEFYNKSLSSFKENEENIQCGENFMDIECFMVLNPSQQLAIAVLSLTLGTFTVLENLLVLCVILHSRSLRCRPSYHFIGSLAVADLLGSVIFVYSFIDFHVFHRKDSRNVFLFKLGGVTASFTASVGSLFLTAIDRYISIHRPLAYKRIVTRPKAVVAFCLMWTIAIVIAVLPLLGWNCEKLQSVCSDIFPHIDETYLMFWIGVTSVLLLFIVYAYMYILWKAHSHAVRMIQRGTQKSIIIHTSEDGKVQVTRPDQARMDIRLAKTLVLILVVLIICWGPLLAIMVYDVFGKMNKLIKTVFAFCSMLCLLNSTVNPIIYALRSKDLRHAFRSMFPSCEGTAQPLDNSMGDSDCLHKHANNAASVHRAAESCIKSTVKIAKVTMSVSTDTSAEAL
# Description: Displacement of [3H]-CP-55940 from human CB1 receptor expressed in HEK293T cell membranes by scintillation counting
# [6] = tested on: Mus musculus; assay: Toxicity in CD1 mouse assessed as hypothermia measured as lowering of core body temperature at 3 to 56 mg/kg, po measured after 90 mins post dose; assay type: organism-based; parameters: dose 3-56 mg/kg, route oral; conditions: in vivo, 1.5 h
# [7] = tested on: HL-60; assay: Antiinflammatory activity in human HL60 cells assessed as stimulation of PGJ synthesis after 2 hrs by ELISA in presence of CB1 antagonist SR141716; assay type: functional, cell-based
# [8] = tested on: HL-60; assay: Antiinflammatory activity in human HL60 cells assessed as stimulation of PGJ synthesis after 2 hrs by ELISA; assay type: functional, cell-based
# [9] = tested on: Mus musculus; assay: Antinociceptive activity in CD1 mouse assessed as increase in paw withdrawal latency at 56 mg/kg, po measured after 90 mins post dose by hot plate test relative to vehicle-treated control; assay type: functional, organism-based; parameters: dose 56 mg/kg
# [10] = tested on: Mus musculus; assay: Antinociceptive activity in CD1 mouse assessed as increase in paw withdrawal latency at 0.05 to 5 mg/kg, po measured after 90 mins post dose by hot plate test relative to vehicle-treated control; assay type: functional, organism-based
structure (smiles),measurement,setting,value
CCCCCCC(C)(C)c1cc(OC(C)=O)c2c(c1)OC(C)(C)[C@@H]1CC=C(C(=O)O)C[C@@H]21,Ratio Ki,[1],12.3
same,Activity,[2],Toxic
same,pKi,[3],7.29
same,Activity,[4],inactive
same,pKi,[5],6.20
same,Activity,[6],Non-toxic
same,Activity,[7],inactive
same,Activity,[8],Active
same,Activity,[9],inactive
CCCCCCC(C)(C)c1cc(O)c2c(c1)OC(C)(C)[C@@H]1CC=C(C(=O)O)C[C@@H]21,Activity,[10],Active
